Legend:
Format in all cases: functional
BT-549 = assay: Cytotoxicity against human BT549 cells assessed as cellular growth at 10 uM by SRB assay
MDA-MB-231 = assay: Cytotoxicity against human MDA-MB-231 cells assessed as cellular growth at 10 uM by SRB assay
MCF7 = assay: Cytotoxicity against human MCF7 cells assessed as cellular growth at 10 uM by SRB assay
PC-3 = assay: Cytotoxicity against human PC3 cells assessed as cellular growth at 10 uM by SRB assay
A498 = assay: Cytotoxicity against human A498 cells assessed as cellular growth at 10 uM by SRB assay
OVCAR-8 = assay: Cytotoxicity against human OVCAR8 cells assessed as cellular growth at 10 uM by SRB assay
UACC-257 = assay: Cytotoxicity against human UACC257 cells assessed as cellular growth at 10 uM by SRB assay
SK-MEL-2 = assay: Cytotoxicity against human SK-MEL-2 cells assessed as cellular growth at 10 uM by SRB assay
U-251 = assay: Cytotoxicity against human U251 cells assessed as cellular growth at 10 uM by SRB assay
SNB-75 = assay: Cytotoxicity against human SNB75 cells assessed as cellular growth at 10 uM by SRB assay
SNB-19 = assay: Cytotoxicity against human SNB19 cells assessed as cellular growth at 10 uM by SRB assay
SF-539 = assay: Cytotoxicity against human SF539 cells assessed as cellular growth at 10 uM by SRB assay
SW-620 = assay: Cytotoxicity against human SW620 cells assessed as cellular growth at 10 uM by SRB assay
HT-29 = assay: Cytotoxicity against human HT-29 cells assessed as cellular growth at 10 uM by SRB assay
HCC 2998 = assay: Cytotoxicity against human HCC2998 cells assessed as cellular growth at 10 uM by SRB assay
COLO 205 = assay: Cytotoxicity against human COLO205 cells assessed as cellular growth at 10 uM by SRB assay
NCI-H460 = assay: Cytotoxicity against human NCI-H460 cells assessed as cellular growth at 10 uM by SRB assay
NCI-H226 = assay: Cytotoxicity against human NCI-H226 cells assessed as cellular growth at 10 uM by SRB assay
MOLT-4 = assay: Cytotoxicity against human MOLT4 cells assessed as cellular growth at 10 uM by SRB assay
CCRF-CEM = assay: Cytotoxicity against human CCRF-CEM cells assessed as cellular growth at 10 uM by SRB assay

Row | Compound | Activity (BT-549) [%] | Activity (MDA-MB-231) [%] | Activity (MCF7) [%] | Activity (PC-3) [%] | Activity (A498) [%] | Activity (OVCAR-8) [%] | Activity (UACC-257) [%] | Activity (SK-MEL-2) [%] | Activity (U-251) [%] | Activity (SNB-75) [%] | Activity (SNB-19) [%] | Activity (SF-539) [%] | Activity (SW-620) [%] | Activity (HT-29) [%] | Activity (HCC 2998) [%] | Activity (COLO 205) [%] | Activity (NCI-H460) [%] | Activity (NCI-H226) [%] | Activity (MOLT-4) [%] | Activity (CCRF-CEM) [%]
1 | c1ccc(-c2nc(-c3cccs3)no2)cc1 | 105.93 | 77.5 | 52.58 | 96.07 | 96.9 | 105.37 | 103.2 | 103.18 | 94.72 | 105.81 | 108.69 | 105.74 | 101.1 | 108.03 | 117.01 | 114.24 | 102.91 | 91.26 | 92.81 | 97.84
2 | O=C(NCCc1ccccc1)c1[nH]c2ccccc2c1Cl | 91.75 | 80.08 | 83.19 | 70.3 | 81.46 | 84.42 | 96.54 | 129.02 | 92.92 | 79.43 | 99.04 | 102.52 | 92.61 | 100.49 | 101.44 | 99.13 | 89.75 | 73.27 | 70.04 | 86.13
3 | Nc1c(C(=O)Nc2cccc(Cl)c2)sc2nc3c(cc12)C(=O)CCC3 | 66.38 | 43.9 | 16.68 | 29.1 | 49.32 | 75.34 | 68.88 | 69.74 | 46.41 | 25.91 | 38.19 | 27.25 | 31.28 | 23.87 | 8.27 | 10.22 | 10.27 | 57.93 | 57.06 | 13.46
4 | O=C(NCc1ccc(Cl)cc1)c1[nH]c2ccccc2c1Cl | 104.79 | 106.69 | 128.42 | 87.3 | 76.55 | 104.08 | 117.15 | 111.13 | 105.3 | 94.33 | 108.55 | 118.51 | 98.38 | 108.03 | 104.03 | 104.86 | 99.81 | 89.64 | 88.19 | 93.68
5 | O=C(Nc1nc2ccc(Cl)cc2s1)c1ccc(Cl)cc1Cl | 111.68 | 114.66 | 98.4 | 97.1 | 93.8 | 97.79 | 95.43 | 116.07 | 93.57 | 114.42 | 109.5 | 101.57 | 111.18 | 94.25 | 97.08 | 114.96 | 100.4 | 101.52 | 93.88 | 99.34
6 | Nc1c(C(=O)NCc2ccccc2)sc2nc3c(cc12)C(=O)CCC3 | 120.38 | 111.36 | 110.54 | 106.49 | 100.49 | 114.43 | 106.3 | 121.61 | 99.51 | 113.06 | 117.75 | 105.28 | 105.63 | 116.55 | 107.63 | 133.04 | 101.03 | 106.37 | 119.87 | 102.77
7 | Clc1cccc(-c2nc(-c3cccs3)no2)c1 | 101.91 | 84.18 | 33.74 | 84.44 | 107.84 | 101.14 | 86.41 | 103.17 | 84.62 | 88.55 | 105.12 | 102.16 | 91.04 | 95.99 | 102.03 | 109.49 | 97.36 | 97.3 | 96.35 | 91.91
8 | Cc1ccc(S(=O)(=O)Oc2ccc(-c3cnc4ccccc4n3)cc2)cc1 | 107.31 | 111.87 | 98.34 | 90.9 | 88.71 | 96.94 | 102.87 | 127.78 | 89.92 | 117.79 | 123.73 | 113.49 | 103.63 | 89.62 | 102.2 | 135.44 | 97 | 99.19 | 89.3 | 96.08
9 | Cc1cc(C)c(NC(=O)c2sc3nc4c(cc3c2N)C(=O)CC(C)(C)C4)c(C)c1 | 109.43 | 115.09 | 99.03 | 87.69 | 89.84 | 107.09 | 101.32 | 119.22 | 99.68 | 105.78 | 122.53 | 102.77 | 106.45 | 96.21 | 105.78 | 117 | 102.63 | 92.57 | 100.05 | 90.08
10 | Cc1cc(C)c(NC(=O)c2sc3nc4c(cc3c2N)C(=O)CCC4)c(C)c1 | 56.75 | 35.68 | 16.79 | 23.46 | -7.37 | 45.64 | 48.69 | 36.14 | 21.13 | 0 | 40.22 | -6.5 | 15.59 | 0.48 | 30.95 | -6.14 | 6.43 | 77.05 | 43.03 | 22.12
11 | Cc1ccccc1NC(=O)c1sc2nc3c(cc2c1N)C(=O)CCC3 | 55.62 | 61.61 | 21.69 | 30.33 | 31.28 | 78.59 | 60.99 | 58.56 | 48.96 | 13.12 | 46.1 | 27.63 | 25.37 | 21.08 | 67 | 6.12 | 15.33 | 65.79 | 67.51 | 30.28

Reference: ChEMBL document CHEMBL2202954, “The effect of PLC-γ2 inhibitors on the growth of human tumour cells” (2012)
